Assay results as given in patent publication US11945765B1, “4,4′-naphthalene-1,5-diylbis(diazene-2,1-diyl)bis(2-methylphenol) as an antioxidant compound” (KING FAISAL UNIVERSITY, priority 2023, dated 2024).

Test: DPPH radical scavenging antioxidant test
Conditions: 517 nm; for Inhibition (radical scavenging inhibition): DPPH (0.75 mM), compound 3 μM in ethanol, 30 minutes in the dark
Procedure: The antioxidant properties of the 4,4′-naphthalene-1,5-diylbis(diazene-2,1-diyl)bis(2-methylphenol) compound were studied by adding 0.2 mL DPPH (0.75 mM)) to 4,4′-naphthalene-1,5-diylbis(diazene-2,1-diyl)bis(2-methylphenol) (III) (3 μM) in ethanol. After 30 minutes of incubation in the dark, the absorbance was read against a blank at 517 nm. Ascorbic acid (vitamin C) was used as standard antioxidants (positive control). A blank sample was prepared by 0.2 ml of DPPH in 3 mL ethanol. A negative control sample was run using ethanol instead of the sample. The radical scavenging inhibition was calculated using the following equation: […]

| Compound | Inhibition (radical scavenging inhibition) | antioxidant potential compared to vitamin C (in words) (DPPH in vitro test, vitamin C as positive control) |
| --- | --- | --- |
| Cc1cc(/N=N\c2cccc3c(/N=N/c4ccc(O)c(C)c4)cccc23)ccc1O [Product III, 4,4′-naphthalene-1,5-diylbis(diazene-2,1-diyl)bis(2-methylphenol)] | 52% | high potential as an antioxidant |
| O=C1O[C@H]([C@@H](O)CO)C(O)=C1O [vit c, Ascorbic acid, reference compound] | 74% | – |
